# Laboratory results reported in paper PMC5931107, “Clinical pharmacodynamic/exposure characterisation of the multikinase inhibitor ilorasertib (ABT-348) in a phase 1 dose-escalation trial” (British Journal of Cancer, 2018).
# Tests used:
# PDGFR-β = test system: PDGFR-β; set-up: method as in PMID 22935731; details: PDGFR-β cellular phosphorylation, ligand stimulated; read-out: Cellular PD marker IC50 (95% confidence limits); cited from earlier work
# advanced solid tumours = experiment: Tumour response, RECIST version 1.1; type: in vivo, human; details: Arm II
# Description: Disease effect endpoints were determined using Response Evaluation Criteria In Solid Tumors version 1.1. Tumour burden assessment was conducted within 21 days prior to cycle 1 day 1, every 8 weeks thereafter, and at the final visit if not performed in the past 4 weeks.
# Aurora C = test system: Aurora C; set-up: method as in PMID 22935731; details: Aurora C autophosphorylation, nocodazole-arrested HeLa cells; read-out: Cellular PD marker IC50 (95% confidence limits); cited from earlier work
# c-KIT = test system: c-KIT; set-up: method as in PMID 22935731; details: KIT cellular phosphorylation, ligand stimulated; read-out: Cellular PD marker IC50 (95% confidence limits); cited from earlier work
# CSF-1R = test system: CSF-1R; set-up: method as in PMID 22935731; details: 1 mM ATP; read-out: Biochemical IC50 (95% confidence limits); cited from earlier work
# [1] = Dose escalation: dose-limiting toxicities and MTD; type: in vivo
# From the text: Dose escalation was first conducted in Arm I and subsequently in Arms II and III. […] The pre-specified DLT criteria included any of the following events graded according to the Common Terminology Criteria for Adverse Events (CTCAE) version 4.0 considered ‘possibly’ or ‘probably’ related to the administration of ilorasertib in cycle 1: grade 4 absolute neutrophil count (ANC) decrease for >7 days or grade ≥ 3 ANC decrease with fever; grade 4 platelet count decrease; grade ≥ 3 proteinuria; grade 4 infusion reaction; grade ≥ 3 asthenia/fatigue; grade 3 nausea/vomiting for ≥48 h or diarrhoea for ≥72 h despite maximum supportive care; grade ≥ 2 neurotoxicity; unexpected grade 2 toxicity which required dose modification or delay of ≥1 week. Given the known adverse effects of VEGFR2 inhibition, specific criteria for hypertension were included: >150/100 mm Hg despite 2 weeks of clinically appropriate intervention, or severe hypertension at any blood pressure reading defined as systolic >200 mm Hg or diastolic > 110 mm Hg, or symptomatic hypertension at any reading; and for decline in left ventricular ejection fraction included: absolute decline >20% from baseline and/or a reduction to <39%. Except for the above categories, all grade ≥ 3 adverse events (AEs) without a definitive alternative etiology were also considered DLTs. AEs detected or worsened in cycle 2 and beyond could be incorporated into dose-escalation decisions at discretion of the investigators and study team.
# The MTD was to be continually re-estimated by a logistic regression model as the dose at which the predicted DLT rate would be 30%. For the three arms, dose-escalation decisions were made after the patient(s) in a cohort completed dosing in cycle 1.
# In Arm I, dosing commenced at 10 mg PO QD and was escalated to 180 mg PO QD. This initial starting dose was calculated using 1/6 of the highest non-severely toxic dose in dogs converted to human equivalent dose, using body surface area scaling and assuming a 60-kg human. Because of uncertainty of food effects on pharmacokinetics and the […] schedule, treatment was administered in a fasted state. […] Enrolment to Arm I was discontinued, on the basis of the protocol-specified continual reassessment method on which MTD was to be determined. […] This schedule was selected due to the anticipated lower maximum observed plasma concentration (Cmax) and greater total exposure, and the possibility that tolerability would be improved under these conditions. Dose escalation proceeded in Arm II, starting at 40 mg PO BID, and stopped at the 340-mg PO BID dose, since this dose met the protocol criteria for exceeding the MTD. The first dose was administered in the fasted state. The second dose of the treatment day was administered at least 4 h after a small meal. […]
# [2] = 40 mg BID, basal cell carcinoma patient
# [3] = 230 mg BID, adenocarcinoma of unknown primary site
structure (smiles),measurement,setting,value
"Nc1ncc(-c2cnn(CCO)c2)c2scc(-c3ccc(NC(=O)Nc4cccc(F)c4)cc3)c12 [ilorasertib, Ilorasertib]",IC50,PDGFR-β,11 nM
same,Best response,advanced solid tumours; [2],partial response
same,Best response,advanced solid tumours; [3],partial response
same,IC50,c-KIT,45 nM
same,Dose that met the protocol criteria for exceeding the MTD,"[1]; Arm I, PO QD",180 mg
same,Dose that met the protocol criteria for exceeding the MTD,"[1]; Arm II, PO BID",340 mg
same,Patients who experienced DLTs,"[1]; human, in vivo, 1 cycle",10%
same,Total number of DLTs,[1]; in vivo,ten
